The values that follow come from patent US20070196478A1, “ANTIVIRAL COMPOSITIONS” (priority 1999, published 2007).

This data set is described as follows: thermal stability of the antiviral compound after melt extrusion (HPLC). In kind it is physicochemical. The settings on record: melt extrudate with HPMC 2910 5 mPa·s, 70° C. to […] C. The text has this: The melt extrudate was milled and fractions with particle size below 150 μm (condition I in point 6) and between 500 and 850 μm (condition II in point 6) were collected.

Take `Cc1cc(C)c(Nc2ccnc(Nc3ccc(C#N)cc3)n2)c(C)c1` [Compound 17 of formula (I-A), 4-[[4-[(2,4,6-trimethylphenyl)amino]-2-pyrimidinyl]amino]benzonitrile]: the “degradation of the antiviral compound after melt extrusion” value is reported as “No degradation”.
